In PMC10657973 (Journal of Pharmaceutical Analysis, 2023):
Counter-ions that a name gives are not always drawn.

What was measured:
OAT1 = target: T1, OAT1 (Homo sapiens, UniProt Q4U2R8); assay: Uptake of UTs in HEK293T-OAT1 cells; assay type: cell-based; conditions: 100 μM, 30 min, 37 °C; for uptake of HSA-bound UT in OAT1-overexpressing cells vs control cells: with HSA; for uptake of free UT in OAT1-overexpressing cells vs control cells: without HSA
T1 sequence (Q4U2R8 1-563): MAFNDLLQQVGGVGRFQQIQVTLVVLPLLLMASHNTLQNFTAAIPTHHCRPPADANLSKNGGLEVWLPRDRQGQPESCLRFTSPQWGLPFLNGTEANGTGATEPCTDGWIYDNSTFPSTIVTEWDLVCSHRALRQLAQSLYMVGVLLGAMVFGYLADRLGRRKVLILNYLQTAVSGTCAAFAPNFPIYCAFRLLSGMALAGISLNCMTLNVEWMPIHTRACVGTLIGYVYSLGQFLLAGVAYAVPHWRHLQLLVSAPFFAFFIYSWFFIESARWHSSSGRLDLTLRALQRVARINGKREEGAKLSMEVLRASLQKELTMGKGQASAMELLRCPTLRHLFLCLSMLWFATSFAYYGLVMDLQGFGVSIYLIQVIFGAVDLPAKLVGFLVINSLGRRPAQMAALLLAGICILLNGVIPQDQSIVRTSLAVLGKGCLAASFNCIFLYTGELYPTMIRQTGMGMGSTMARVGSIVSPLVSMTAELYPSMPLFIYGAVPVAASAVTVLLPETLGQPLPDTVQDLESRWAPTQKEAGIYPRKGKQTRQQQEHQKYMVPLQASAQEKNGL

[1] = assay type: in vivo, rats; conditions: rats; for Renal clearance half-life (t1/2), Control: 2 mg/kg i.v., urine 0-12 h; for renal excretion with MK-571 vs control: MK-571 20 mg/kg; for renal excretion with PROB vs control: PROB 60 mg/kg
rOATs = rOATs inhibition experiment; conditions: rats, H&E staining
serum protein = assay: Protein-binding ratio of UTs in rat serum; assay type: in vitro ADME, rats; conditions: ultrafiltration at 37 °C
OAT3 = target: T2, OAT3 (Homo sapiens, UniProt Q8TCC7); assay: Uptake of UTs in HEK293T-OAT3 cells; assay type: cell-based; conditions: 100 μM, 30 min, 37 °C; for uptake of HSA-bound UT in OAT3-overexpressing cells vs control cells: with HSA; for uptake of free UT in OAT3-overexpressing cells vs control cells: without HSA
T2 sequence (Q8TCC7 1-542): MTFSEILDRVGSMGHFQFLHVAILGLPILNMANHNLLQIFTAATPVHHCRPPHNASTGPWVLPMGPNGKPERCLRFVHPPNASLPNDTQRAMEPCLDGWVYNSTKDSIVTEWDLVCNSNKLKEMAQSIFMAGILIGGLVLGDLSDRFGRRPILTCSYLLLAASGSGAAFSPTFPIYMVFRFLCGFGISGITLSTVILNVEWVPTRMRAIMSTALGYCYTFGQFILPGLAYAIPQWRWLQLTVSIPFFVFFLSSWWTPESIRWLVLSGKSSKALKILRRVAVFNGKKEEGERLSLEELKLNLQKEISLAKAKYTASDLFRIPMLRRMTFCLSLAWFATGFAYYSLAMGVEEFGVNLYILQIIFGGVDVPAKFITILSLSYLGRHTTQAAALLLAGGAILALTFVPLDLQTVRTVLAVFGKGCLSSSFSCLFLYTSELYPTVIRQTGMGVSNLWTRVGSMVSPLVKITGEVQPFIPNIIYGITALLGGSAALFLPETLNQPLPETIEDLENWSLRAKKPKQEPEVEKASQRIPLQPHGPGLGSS

MRP4 = assay: Intracellular accumulation of UTs in MRP4-overexpressing cells; assay type: cell-based, human; conditions: 100 μM, 30 min, 37 °C, 4 mM ATP

Compound: O=C(O)Cc1c[nH]c2ccccc12 [Indole-3-acetic acid, indole-3-acetic acid]
- uptake of HSA-bound UT in OAT1-overexpressing cells vs control cells (OAT1): significantly increased
- uptake of free UT in OAT1-overexpressing cells vs control cells (OAT1): significantly increased

Compound: d3-CMPF
- Renal clearance half-life (t1/2), Control [1]: 1.9 ± 0.3 h
- renal excretion with MK-571 vs control [1]: did not affect
- renal excretion with PROB vs control [1]: did not affect

Compound: CCCN(CCC)S(=O)(=O)c1ccc(C(=O)O)cc1 [PROB, probenecid, reference compound]
- histological structure of kidney (rOATs): unchanged

Compound: CCc1ccc(OS(=O)(=O)[O-])cc1.[K+] [4-ethylphenyl sulfate]
- Protein-binding ratio, Normal rats in vivo (%) (n = 6) (serum protein): > 90%
- uptake of HSA-bound UT in OAT1-overexpressing cells vs control cells (OAT1): no significant change
- uptake of free UT in OAT1-overexpressing cells vs control cells (OAT1): substantially elevated
- uptake of HSA-bound UT in OAT3-overexpressing cells vs control cells (OAT3): no significant change
- uptake of free UT in OAT3-overexpressing cells vs control cells (OAT3): substantially elevated

Compound: OC[C@H]1O[C@@H](Oc2c[nH]c3ccccc23)[C@H](O)[C@@H](O)[C@@H]1O [3-indoxyl-β-D-glucopyranoside]
- Protein-binding ratio, Normal rats in vivo (%) (n = 6) (serum protein): > 90%
- uptake of HSA-bound UT in OAT3-overexpressing cells vs control cells (OAT3): markedly increased
- uptake of free UT in OAT3-overexpressing cells vs control cells (OAT3): markedly increased

Compound: CC(=O)N[C@@H](CCCN=C(N)N)C(=O)O [N-acetyl-L-arginine]
- intracellular accumulation in MRP4-overexpressing cells vs control cells (MRP4): significantly decreased

Compound: CC(=O)Nc1ccn([C@@H]2O[C@H](CO)[C@@H](O)[C@H]2O)c(=O)n1 [N-acetylcytidine]
- uptake of free UT in OAT1-overexpressing cells vs control cells (OAT1): significantly increased
- uptake of free UT in OAT3-overexpressing cells vs control cells (OAT3): significantly increased

Compound: O=C(O)[C@H]1O[C@@H](Oc2ccccc2)[C@H](O)[C@@H](O)[C@@H]1O [Phenyl-β-D-glucuronide, phenyl-β-D-glucuronide]
- Protein-binding ratio, Normal rats in vivo (%) (n = 6) (serum protein): < 70%
- uptake of HSA-bound UT in OAT3-overexpressing cells vs control cells (OAT3): significantly increased
- uptake of free UT in OAT3-overexpressing cells vs control cells (OAT3): significantly increased

Compound: [2H]c1c([2H])c([2H])c2c(O)c([2H])c(C(=O)O)nc2c1[2H] [d5-kynurenic acid]
- Renal clearance half-life (t1/2), Control [1]: 3.7 ± 0.7 h

Compound: [2H]c1c([2H])c([2H])c2c(O)c([2H])c(C(=O)O)nc2c1O [d4-xanthurenic acid]
- renal excretion with MK-571 vs control [1]: reduce
- renal excretion with PROB vs control [1]: reduce

Compound: O=S(=O)(O)Oc1c[nH]c2ccccc12 [3-indoxyl sulfate]
- uptake of HSA-bound UT in OAT3-overexpressing cells vs control cells (OAT3): no significant change
- uptake of free UT in OAT3-overexpressing cells vs control cells (OAT3): substantially elevated

Compound: Cc1ccc(O[C@@H]2O[C@H](C(=O)O)[C@@H](O)[C@H](O)[C@H]2O)cc1 [p-cresol glucuronide]
- Protein-binding ratio, Normal rats in vivo (%) (n = 6) (serum protein): < 70%
- uptake of HSA-bound UT in OAT3-overexpressing cells vs control cells (OAT3): markedly increased
- uptake of free UT in OAT3-overexpressing cells vs control cells (OAT3): markedly increased

Compound: Nc1ccccc1C(=O)C[C@@H](N)C(=O)O [D-kynurenine]
- Protein-binding ratio, Normal rats in vivo (%) (n = 6) (serum protein): > 90%
- uptake of HSA-bound UT in OAT1-overexpressing cells vs control cells (OAT1): markedly increased
- uptake of free UT in OAT1-overexpressing cells vs control cells (OAT1): markedly increased

Compound: Cn1cnc2c(ncn2[C@@H]2O[C@H](CO)[C@@H](O)[C@H]2O)c1=O [1-methyl-inosine]
- uptake of free UT in OAT3-overexpressing cells vs control cells (OAT3): significantly higher

Compound: Cc1ccc(OS(=O)(=O)O)cc1 [p-cresol sulfate]
- Protein-binding ratio, Normal rats in vivo (%) (n = 6) (serum protein): > 90%
- uptake of HSA-bound UT in OAT1-overexpressing cells vs control cells (OAT1): significantly increased
- uptake of free UT in OAT1-overexpressing cells vs control cells (OAT1): significantly increased
- uptake of free UT in OAT3-overexpressing cells vs control cells (OAT3): significantly increased

Compound: N[C@@H](Cc1ccc(O)c(O)c1)C(=O)O [3-(3,4-dihydroxyphenyl)-L-alanine]
- Protein-binding ratio, Normal rats in vivo (%) (n = 6) (serum protein): < 70%

Compound: NCCCC[C@H](NCC(=O)O)C(=O)O [N-(1-carboxymethyl)-L-lysine]
- Protein-binding ratio, Normal rats in vivo (%) (n = 6) (serum protein): < 70%
